Data as given in article PMC6409468, “Isolation and identification of angiotensin I-converting enzyme inhibitory peptides derived from thermolysin-injected beef M. longissimus” (Asian-Australasian Journal of Animal Sciences, 2018).
pIC50: −log10 of the molar value. Residues, ends and D or L forms follow the SMILES beside them. No end group written: not given here.

Target: T1, ACE (from rabbit lung) (Oryctolagus cuniculus, UniProt P12822)
T1 construct: ACE (peptidyldipeptide hydrolase from rabbit lung acetone extract); purchased Sigma; host or cells: rabbit lung (acetone extract)
T1 sequence (P12822 34-1310): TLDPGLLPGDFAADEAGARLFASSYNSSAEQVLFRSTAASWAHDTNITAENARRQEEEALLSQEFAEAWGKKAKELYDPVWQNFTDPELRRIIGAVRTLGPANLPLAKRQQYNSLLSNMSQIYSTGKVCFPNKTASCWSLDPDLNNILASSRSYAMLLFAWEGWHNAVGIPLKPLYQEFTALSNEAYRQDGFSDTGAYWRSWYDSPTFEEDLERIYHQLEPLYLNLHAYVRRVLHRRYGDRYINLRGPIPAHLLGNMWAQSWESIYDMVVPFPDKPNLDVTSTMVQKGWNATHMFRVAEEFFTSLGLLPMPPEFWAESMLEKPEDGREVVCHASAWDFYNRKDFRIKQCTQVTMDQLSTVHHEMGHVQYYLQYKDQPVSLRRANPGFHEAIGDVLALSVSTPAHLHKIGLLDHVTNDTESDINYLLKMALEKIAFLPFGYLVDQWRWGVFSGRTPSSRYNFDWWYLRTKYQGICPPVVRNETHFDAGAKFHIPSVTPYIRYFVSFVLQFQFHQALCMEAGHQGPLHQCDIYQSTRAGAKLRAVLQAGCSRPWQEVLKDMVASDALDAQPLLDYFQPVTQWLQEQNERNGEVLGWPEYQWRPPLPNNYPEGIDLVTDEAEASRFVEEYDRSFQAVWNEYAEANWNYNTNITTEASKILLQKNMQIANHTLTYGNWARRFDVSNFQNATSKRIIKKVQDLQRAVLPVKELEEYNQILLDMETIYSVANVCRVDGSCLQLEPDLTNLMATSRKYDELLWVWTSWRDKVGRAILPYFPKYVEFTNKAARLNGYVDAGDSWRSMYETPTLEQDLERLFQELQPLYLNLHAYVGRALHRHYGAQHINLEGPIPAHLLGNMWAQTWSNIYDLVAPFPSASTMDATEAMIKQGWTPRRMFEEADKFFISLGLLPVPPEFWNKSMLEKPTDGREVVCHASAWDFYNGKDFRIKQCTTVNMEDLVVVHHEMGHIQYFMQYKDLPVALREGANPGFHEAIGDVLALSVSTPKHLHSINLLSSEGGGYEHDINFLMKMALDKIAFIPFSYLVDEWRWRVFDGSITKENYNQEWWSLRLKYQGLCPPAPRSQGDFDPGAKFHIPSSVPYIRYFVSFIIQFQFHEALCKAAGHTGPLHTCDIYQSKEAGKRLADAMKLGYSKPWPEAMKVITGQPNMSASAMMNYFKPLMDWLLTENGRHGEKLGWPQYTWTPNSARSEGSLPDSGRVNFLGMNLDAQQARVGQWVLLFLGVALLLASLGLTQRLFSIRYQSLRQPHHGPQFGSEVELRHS
Test: ACE inhibitory activity, spectrophotometric method (HHL substrate, hippuric acid at 228 nm)
Format: biochemical
Settings: chemically synthesized peptides
Protocol: ACE inhibitory activity determination was achieved using the spectrophotometric method described by Cushman and Cheung. For each assay, 100 μL of HHL (12.5 mM in 0.05 M sodium borate buffer) was incubated at 37°C for 5 min. After incubation, 50 μL of bovine peptide extracts and 150 μL of ACE (peptidyldipeptide hydrolase from rabbit lung acetone extract) were added and the mixture incubated for 1 h. The enzymatic reaction was stopped by adding 250 μL of 0.5 N HCl. The hippuric acid generated by the action of the angiotensin-converting enzyme on HHL was extracted from the acidified solution into 1 mL ethyl acetate by vortex mixing for 15 s. This was centrifuged at 3,290×g for 10 min at 4°C, and a 0.7 mL aliquot of each ethyl acetate layer was transferred to clean tubes and evaporated by heating at 95°C for 20 min in a water bath. The hippuric acid was redissolved in 3 mL of 1 M NaCl, and the amount formed was determined by absorbance at 228 nm. The IC50 value, defined as the concentration of a peptide that inhibits 50% of the ACE activity, was determined by measuring the ACE inhibitory activity and the peptide contents of each of the extracts after regression analysis. ACE inhibitory activity (%) was determined using the equation:
ACE inhibitory activity (%)=[1-(S-SC)/(B-BC)]×100
where S and B are optical density (OD) values for the sample and blank, respectively, and SC and BC are the OD values for the sample control and blank, respectively.

| Molecule | pIC50 |
| --- | --- |
| CC(C)C[C@H](N)C(=O)N[C@@H](CO)C(=O)N[C@@H](Cc1c[nH]c2ccccc12)C(=O)O [Leu-Ser-Trp] (H-Leu-Ser-Trp-OH) | 3.05 |
| CSCC[C@H](N)C(=O)N[C@@H](C)C(=O)N[C@@H](CC(=O)O)C(=O)N[C@@H](C)C(=O)O [Met-Ala-Asp-Ala] (H-MADA-OH) | 2.23 |
| N[C@@H](Cc1ccccc1)C(=O)NCC(=O)N[C@@H](Cc1ccc(O)cc1)C(=O)O [Phe-Gly-Tyr] (H-Phe-Gly-Tyr-OH) | 2.57 |
| N=C(N)NCCC[C@H](NC(=O)[C@@H](N)Cc1ccc(O)cc1)C(=O)N[C@@H](CCC(N)=O)C(=O)O [Tyr-Arg-Gln] (H-Tyr-Arg-Gln-OH) | 2.51 |
| N[C@@H](Cc1ccc(O)cc1)C(=O)NCC(=O)O [Tyr-Gly] | 1.90 |
| NC(=O)C[C@H](NC(=O)[C@H](Cc1ccccc1)NC(=O)[C@@H](N)Cc1ccc(O)cc1)C(=O)N[C@@H](CCC(=O)O)C(=O)O [Tyr-Phe-Asn-Glu] (H-YFNE-OH) | 2.12 |
| N[C@@H](Cc1ccc(O)cc1)C(=O)N[C@@H](Cc1ccc(O)cc1)C(=O)O [Tyr-Tyr] (H-Tyr-Tyr-OH) | 2.07 |
| CC(C)[C@H](N)C(=O)N[C@@H](CO)C(=O)N[C@@H](CO)C(=O)N[C@H](C(=O)O)C(C)C [Val-Ser-Ser-Val] (H-VSSV-OH) | 2.07 |
| LWHHT [Leu-Trp-His- His-Thr] | 2.28 |
| QPSGSQ [Gln-Pro-Ser-Gly-Ser-Gln] | 2.06 |
